Laboratory results from paper PMC5380659, “Unique charge-dependent constraint on collagen recognition by integrin α10β1” (Matrix Biology, 2017).
“Also recorded” adds a separate entry of the source.

System: human recombinant GST-α10-R215Q I-domain
Test: SPBA of α10-R215Q mutant I domain
Assay type: binding
Conditions: 2 mM MgCl2, relative to wild type α10 I domain, Fig. 8F, Fig. 9
Description: The I domain was first applied to the collagen II and III Toolkits in the presence or absence of Mg^2 +, detected using anti-GST as before, and data are shown in Fig. 9A and B. α10-R215Q I domain binding was Mg^2 +-dependent, reproducing the wild type Toolkit II data shown in Fig. 1A.
pGEX-2T-α1, α2 and α10 I were used to generate the Q to R or R to Q mutations using QuikChange PCR kit from Stratagene (200518).
To express α2 wild type and mutant I domains, a 100-ml overnight culture of transformants (Origami strain) was used to inoculate 1 L of Luria broth containing 100 μg/ml ampicillin, 15 μg/ml Kanamycin and 12.5 μg/ml Tetracyclin. The culture was grown for 2 h at 37 °C and then induced at room temperature for 4 h with isopropyl β-D-thiogalactopyranoside (0.1 mM, Melford Laboratories, UK, #MB1008). Cells were harvested by centrifugation at 4500g for 20 min, and pellets for GST-fusion were resuspended in 10 ml Dulbecco's phosphate-buffered saline, containing 1 tablet of protease inhibitor cocktail (Roche) and 5 mg of lysozyme (Fluka). Suspensions were sonicated and Triton X-100 was added to 1% (v/v). Suspensions were mixed on a roller for 15 min at room temperature, then centrifuged at 18,000 × g for 20 min, and supernatants were pooled. […]
I domain adhesion was determined colorimetrically, as described, here termed solid phase binding assay (SPBA). […]

GROGER [short triple-helical peptide containing GROGER]
Binding of α10-R215Q I domain: restored binding; also recorded: better binding
